# Laboratory results from US6444698B1, “Application of 2,3,7,8-tetrachlorodibenzo-para-dioxin (TCDD) as a promoter blocker of cancer” (priority 1998, dated 2002).
# Where “and” joins values, the source holds several entries; their conditions need not be identical. Equal entries are not always repeated. Entries after “also recorded” stand apart in the source; their conditions may differ. Where two headings read alike, the source gives them in different places.
# Legend:
# [1] = target: T1, aryl hydrocarbon (Ah) receptor (Homo sapiens, UniProt P35869); settings: cited from earlier work
# T1 sequence (P35869 11-848): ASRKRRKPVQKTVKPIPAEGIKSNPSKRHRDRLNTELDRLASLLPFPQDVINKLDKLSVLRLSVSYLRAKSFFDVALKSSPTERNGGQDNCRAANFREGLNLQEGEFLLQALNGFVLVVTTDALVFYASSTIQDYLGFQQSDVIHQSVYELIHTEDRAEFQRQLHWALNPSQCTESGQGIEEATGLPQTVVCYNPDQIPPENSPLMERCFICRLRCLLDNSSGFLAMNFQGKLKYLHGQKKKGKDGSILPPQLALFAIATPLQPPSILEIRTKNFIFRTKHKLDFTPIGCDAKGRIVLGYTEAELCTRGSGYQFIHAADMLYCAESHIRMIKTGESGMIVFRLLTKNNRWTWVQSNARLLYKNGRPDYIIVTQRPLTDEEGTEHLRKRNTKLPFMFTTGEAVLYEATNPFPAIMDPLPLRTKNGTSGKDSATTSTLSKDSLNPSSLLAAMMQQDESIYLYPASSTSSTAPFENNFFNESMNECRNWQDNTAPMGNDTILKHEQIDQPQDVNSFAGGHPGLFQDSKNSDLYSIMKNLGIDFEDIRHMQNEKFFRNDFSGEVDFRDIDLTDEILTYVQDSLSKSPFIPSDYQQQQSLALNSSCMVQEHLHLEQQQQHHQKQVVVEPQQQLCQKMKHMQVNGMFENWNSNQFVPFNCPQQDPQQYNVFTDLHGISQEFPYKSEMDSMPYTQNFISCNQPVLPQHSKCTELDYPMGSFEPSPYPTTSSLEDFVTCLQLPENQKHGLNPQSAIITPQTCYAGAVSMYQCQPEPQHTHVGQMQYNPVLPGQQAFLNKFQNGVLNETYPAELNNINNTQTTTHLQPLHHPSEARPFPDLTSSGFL
# Sprague-Dawley rats [2] = test: Kociba lifetime rodent feeding study; assay type: in vivo, rat
# Description: EPA has sought to regulate dioxin as a carcinogen on three occassions. […] Kociba et al., Toxicol. Appl. Pharmacol. 46, 279-303 (1978). […] Kociba et al. (1978); U.S. EPA (1985); and U.S. EPA (1994).
# Kociba et al, (1978); U.S. EPA (1985 and 1994).
# To develop the Invention further, cross species comparisons are performed when no second epidemiology report is available to test the effect of TCDD exposure on women. […] Kayajanian, Regul. Toxicol. Pharmacol. 26, 134-137 (1997).
# [3] = tested on: residential population of men and women; test: Seveso Study, cancer incidence in residential population exposed to TCDD; assay type: in vivo, human
# Description: (§1) In addition to published and unpublished epidemiology data from the NIOSH Report (Fingerhut et al. (1990)), additional NIOSH Life Table records (LT20406 (1990)), and the Steenland et al. article (1999), the Inventor relies on Bertazzi et al.'s (Epidemiol. 4, 398-406 (1993)) cancer incidence data presentation on a residential population of men and women exposed to the lowest levels of TCDD as a result of a chemical plant explosion near Seveso, Italy, and the Inventor's own analysis of cancer incidence and body burden data in the Operation Ranch Hand (ORH) airmen exposed to TCDD as a result of service in Southeast Asia during the Vietnam War. None of the NIOSH and Seveso papers cited above claim that TCDD acts as an anti-carcinogen. The Air Force Scientists charged with developing the ORH Study also fail to observe TCDD as an anti-carcinogen. Ketchum et al. Amer. J. Epidem. 149, 630-639 (1999).
# (§2) The Seveso Study (Bertazzi et al. (1993)) is a report on cancer incidence and cancer incidence changes in the first ten years following the population's exposure to TCDD and other chemicals. Over the course of these ten years, one expects not to register the carcinogenic effects of any chemicals acting as cancer initiators and to include any effects attributable to TCDD discernible within ten years, like promotion or promotion blocking. The first ten years of the lifetime NIOSH Study offer the same advantage. Fingerhut et al. (1990).
# For a limited number of narrow cancer classifications, Bertazzi et al. (1993) has provided cancer incidence data stratified in five year intervals both for publication and as a courtesy to the Inventor. Kayajanian, Ecotox. Environ. Safety 42, 103-109 (1999). Fingerhut et al. (1990) also published five year cancer occurrence observations for total cancers. […] This pattern of cancer incidence reduction in the second five year interval is what one would expect if TCDD acted as a promoter blocker of the enumerated individual cancer classifications and a sufficient number of other cancers to generate a significant total cancer incidence reduction.
# The significant individual and total cancer reductions the Inventor noted from the Seveso data, whether stratified or not (Bertazzi et al. (1993)) are associated with median levels of 48 ppt TCDD. Bertazzi et al., Amer. J. Epidem. 153, 1031-1043 (2001). Measurement of TCDD levels include both men and women.
# [4] = tritiated TCDD ingested in corn oil, volunteer; cited from earlier work
# [5] = tested on: male workers in 12 chemical plants; settings: most highly TCDD-exposed members of the NIOSH workforce (Steenland 1999); cited from earlier work
# [6] = tested on: Operation Ranch Hand (ORH) airmen; test: Operation Ranch Hand (ORH) cancer incidence and body burden analysis; assay type: in vivo, human
# Description: as §1
# The ORH cancer incidence data collected over 30 years has particular value, because one may compute the cancer incidence effects associated with military service in Southeast Asia in internal cohorts unexposed or virtually unexposed to TCDD and distinguish them from an internal cohort of airmen exposed to TCDD within a well calibrated body burden range.
# Kayajanian, Ecotox. Environ. Safety 46, 103-109 (2000); and Kayajanian, Ecotox. Environ. Safety (In press, 2001).
# Kayajanian (2000)(In press, 2001). One standout cancer reduction is associated with an even lower TCDD body burden level: prostate cancer in black veterans is highest at non detect TCDD levels of less than 1.25 ppt; it is reduced at body burdens between 1.25 and 4.0 ppt, and lowest above 4.00 ppt, The pattern of prostate cancer reduction in black men is significant. Kayajanian, (In press, 2001).
# [7] = tested on: Operation Ranch Hand (ORH) airmen; settings: cited from earlier work
# [8] = tested on: residential population of men and women; settings: cited from earlier work
# Sprague-Dawley rats [9] = settings: cited from earlier work
# industrial cohorts = settings: cited from earlier work
# mouse skin = settings: cited from earlier work
# [10] = tested on: male workers in 12 chemical plants; test: NIOSH Study of chemical plant workers, cancer occurrence; assay type: in vivo, human
# Description: In 1994, EPA sought to regulate TCDD as a “probable” human carcinogen, using a population of 5280 male workers in 12 chemical plants, each of whom was exposed to contaminant levels of TCDD and some mix of 1000 unidentified other chemicals. Fingerhut et al. (1990). Fingerhut compared the cancer incidence in the plant workers to that expected in a national reference, and EPA concluded all the cancer incidence increases noted by Fingerhut were caused by the TCDD exposure and none were caused by exposures to other chemicals. U.S. EPA (1994). EPA's Science Advisory Board rejected the Agency's TCDD cancer claims. U.S. EPA Science Advisory Board, Review of Draft Documents: A Second Look at Dioxin (1995).
# as §2
# One of the plants (Midland) in the NIOSH Report has workers who reproduce the signature of individual cancer reductions and increases the Inventor observed in Seveso low exposure men: reductions in lung, primary liver (measured in Midland as liver) and multiple myeloma, which collectively are significant; and increases in STS and NHL, which individually are significant. The Seveso signature pattern of cancer incidence changes is present even though workers in Midland and the other 11 chemical plants were exposed to confounding chemicals which might have masked or diminished the extent of pattern confirmation. LT20406 (1990). From Steenland et al. (1999), one can estimate the TCDD level associated with the Midland plant wotkers as 105 ppt above background, or between 105 and 115 ppt.
# The specific and total cancer reductions noted in the NIOSH, Seveso, and ORH studies can be tied to specific dioxin body burden levels measured in serum. Reading Steenland et al. (1999) and Fingerhut et al. (1990) together, one can estimate a range from 3 to 10,000 ppt extra TCDD in serum in eight of the 12 NIOSH plante worker cohorts. […] Midland workers, who show the Seveso pattern of reductions of specific cancers, had 105 ppt TCDD above background, which is assumed to be 0 to 10 ppt.
# [11] = low exposure cohorts, second five years compared to first five years
smiles,measurement,setting,value
"Clc1cc2c(cc1Cl)Oc1cc(Cl)c(Cl)cc1O2 [TCDD, 2,3,7,8-tetrachlorodibenzo-para-dioxin]",binding to the aryl hydrocarbon (Ah) receptor,[1],preferentially binds
same,total cancers,"Sprague-Dawley rats [2]; each sex, low and mid dose TCDD levels of 540 and 5100 ppt in liver tissue",significant reduction
same,total cancers,"Sprague-Dawley rats [2]; low dose female rats, p<0.01",significantly reduced
same,uterine cancers,"Sprague-Dawley rats [2]; low dose female rats, p<0.06",significantly reduced
same,liver cancer incidence,"Sprague-Dawley rats [2]; low dose, each sex, significant in the males",reduction
same,"percentagewise cancer incidence reduction, male versus female rats",Sprague-Dawley rats [2]; lowest study exposure,in male rats to a greater extent than in female rats
same,cancers at multiple tissue sites and overall,"Sprague-Dawley rats [2]; male and female rats, TCDD body burdens of 540 and 5100 ppt",reduction
same,lung and multiple myeloma cancer incidence in men,[3]; compared to the outside reference over the entire ten year period,significantly or notably reduced
same,incidence of soft tissue sarcoma (STS) and non Hodgkins lymphoma (NHL),"[3]; low exposure adults (men plus women), second five years compared to first five years",significantly increased
same,corpus uteri cancer incidence in women,[3]; [11],significant cancer incidence reduction
same,primary liver cancer incidence in men,[3]; [11],significant cancer incidence reduction
same,total cancer incidence in women,[3]; [11],significant cancer incidence reduction
same,"percentagewise cancer incidence reduction, men versus women",[3]; lowest study exposure,to a greater extent in men than in women
same,label retention,[4],87%
same,total cancers,[5],significant increase
same,total cancers other than skin,"[6]; all airmen, 50 ppt (mean body burden 50-100 ppt)",significant cancer incidence reductions; also recorded: significant non skin cancer reductions
same,prostate cancer in black veterans,[6]; body burdens above 4.00 ppt,lowest
same,prostate cancer in black veterans,[6]; body burdens between 1.25 and 4.0 ppt,reduced
same,skin cancer incidence,"[6]; non black airmen, 100 ppt (mean body burden 50-100 ppt)",significant cancer incidence reductions; also recorded: significant skin cancer reductions
same,prostate cancer in black veterans,[6]; non detect TCDD levels of less than 1.25 ppt,highest
same,mean TCDD body burden levels at which significant cancer incidence reductions are observed,[6]; skin and total cancers other than skin,50-100 ppt
same,mean TCDD level of airmen when they left Vietnam,[7],195.7 ppt
same,total cancers,"[8]; Italian men from Seveso, pooled two highest exposed cohorts, over twenty years (Bertazzi 2001)",significant increase
same,median TCDD level associated with significant individual and total cancer reductions,[8]; men and women,48 ppt and 48.0 ppt
same,hepatocarcinogenicity,"Sprague-Dawley rats [9]; body burden level 25,400 ppt (Safe citing Kociba)",very hepatocarcinogenic
same,liver cancer incidence,Sprague-Dawley rats [9]; high dose female Sprague-Dawley rats fed TCDD over a lifetime,significantly elevated
same,mammary and uterine cancers,"Sprague-Dawley rats [9]; high dose female, body burden level 25,400 ppt (Safe citing Kociba)",anti-carcinogenic
same,total cancer mortality,industrial cohorts; most highly TCDD-exposed German herbicide chemical plant workers (Flesch-Janys 1995),significant increase
same,total cancers,"industrial cohorts; separate studies of different industrial cohorts (Zober 1990, Manz 1991)",total cancer increase
same,artificially elevated skin cancer incidence,mouse skin; TCDD administered simultaneously with or a day after the skin cancer initiation step,No reduction
same,artificially elevated skin cancer incidence,"mouse skin; very high single dose administered one to five days prior to initiation, several mice strains",significantly reduces
same,"lung, primary liver (measured as liver) and multiple myeloma cancers","[10]; Midland plant workers, collectively significant",reductions
same,STS and NHL,"[10]; Midland plant workers, individually significant",increases
same,TCDD level associated with the Midland plant workers,[10]; including background,105-115 ppt
same,incidence of total cancers in men,"[10]; years 6-10 compared to years 1-5, Fingerhut Report",significantly less
